Measured values as given in US20030040485A1, “alpha/beta-adrenoceptors blockers and angiotensin converting enzyme inhibitors derived from hydroxyphenyl carboxylic acid and alcohol” (priority 2001, published 2003).

Tests used:
[1] = test system: β1-adrenoceptor (right atrium); test: β1-adrenoceptor antagonism, spontaneously beating right atrium, pA2 vs L-isoproterenol; details: for β1/β2 Ratio: antilogarithm of difference between mean pA2 of right atrium and trachea; for β1 pA2 value, Right atrium: Schild plot, mean ± SEM of six to eight experiments
Protocol: The spontaneously-beating right atria was clipped on both end by heart shaped clips, where one end was fixed at the bottom of 10 ml of tissue bath made of physiological saline solution, and temperature maintained at 37° C. The other end of the atria was connected to a force transducer, and isometric contractions and beating rate of the right atria were recorded by COULBOURN AT-High-Speed VideoFigure. After the samples were given 250 mg of contractions and reach equilibrium the following experiments were carried out:
(§1) When the spontaneously beating rate of right atria reached a certain stability, cumulative administration of L-isoproterenol from 1×10^−10˜3×10^−10 M caused the heart rate to increase continuously, and a cumulative dose-response curve was obtained. Then the L-isoproterenol was thoroughly washed off with Kreb's solution to recover the right atria's heart rate stability. After the equilibrum was reached again for at least 60 minutes, different concentrations (10^−7, 10^−6, 10^−5 M) of compounds were added. 30 minutes later, cumulative administration of L-isoproterenol from 1×10^−10˜3×10^−10 M were carried out again, and another new cumulative dose-response curve was obtained. Administration of L-isoproterenol started from concentration 1×10^−10 M, and the concentration was raised 0.5 log each time for a total of six times. Cumulative administration interval was when the previous concentration reached its greatest effect, the next concentration would be immediately given. […] In other groups of rats, after separate administration of test compounds, their pA2 values were obtained.
pA2=−Log KB Log(DRADJ−1)=n log[B]−LogKB

[2] = test system: blood pressure of normotensive male Wistar rats; test: Heart rate and blood pressure in living rat (i.v., anaesthetized); format: in vivo; details: maximal decrease, 2 mg/kg i.v.
Text: Normotensive Male Wistar rats (NTRs), weighing 200˜300 g were abdominal anaesthetized with pentobarbital sodium. Tracheal was cannulated to maintain normal respiration. Polyethylene tube was inserted into the left femoral vein to facilitate drug administration. A 3-way stopcock was used, with one end comnected to a syringe for drug injection, while the other end was connected to the syringe filled with physiological saline. The latter was used to prevent residual drugs in the polyethylene tube after injection, which would affect experimental accuracy.
The right femoral artery was also inserted with polyethylene, and a 3-way stopcock was used tool, where one end was connected to heparin solution to prevent embolism. The other end was comnected to a Disposable Diaphragm Dome, TA1019, and linked to a pressure transducer (Model P10EZ; Spectramed, Oxnard, Calif., USA). Through an amplifier, a recorder recorded the overall and average arterial pressure; heart rate to evaluate the effect of drug on blood pressure and heart rate. Different concentrations 0.1, 1.0, 2.0, 3.0 mg/kg of test compounds were given to the rats via femoral vein and the differences in the heart rate and blood pressure were compared. Table 2 shown maximal decrease of blood pressure affect of compounds after given 2.0 mg/kg test compounds to the rats.

[3] = target: β1-adrenoceptor (left atrium) (Rattus norvegicus, UniProt P18090); test: β1-adrenoceptor antagonism, left atrium, pA2; details: Schild plot, mean ± SEM of six to eight experiments
Sequence of β1-adrenoceptor (left atrium) (P18090 whole entry): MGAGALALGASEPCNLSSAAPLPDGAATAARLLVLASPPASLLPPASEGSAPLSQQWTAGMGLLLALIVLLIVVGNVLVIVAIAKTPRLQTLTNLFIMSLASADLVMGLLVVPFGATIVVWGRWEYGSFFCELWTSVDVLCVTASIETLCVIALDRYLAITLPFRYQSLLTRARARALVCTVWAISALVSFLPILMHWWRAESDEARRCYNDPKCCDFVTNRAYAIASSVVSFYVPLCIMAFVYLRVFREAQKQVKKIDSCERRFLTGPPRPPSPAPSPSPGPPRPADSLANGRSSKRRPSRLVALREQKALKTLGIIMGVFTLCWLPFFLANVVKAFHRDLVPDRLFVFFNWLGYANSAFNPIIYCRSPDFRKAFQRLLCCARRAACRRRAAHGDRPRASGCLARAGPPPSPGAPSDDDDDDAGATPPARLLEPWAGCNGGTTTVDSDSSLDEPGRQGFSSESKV

[4] = test system: β2-adrenoceptor (trachea); test: β2-adrenoceptor antagonism, trachea, pA2; set-up: species or system rat; details: Schild plot, mean ± SEM of six to eight experiments
Protocol: as §1
pA2=−Log KB Log(DRADJ−1)=n log[B]−LogKB

[5] = target: T1, angiotensin converting enzyme (ACE) (Rattus norvegicus, UniProt P47820); test: ACE inhibitory activity in rat serum (Hycor kit, [3H]-hippuryl-glycyl-glycine); format: biochemical; details: mean of three samples
T1 construct: from tissue; host or cells: rat serum
T1 sequence (P47820 36-1238 limits assumed): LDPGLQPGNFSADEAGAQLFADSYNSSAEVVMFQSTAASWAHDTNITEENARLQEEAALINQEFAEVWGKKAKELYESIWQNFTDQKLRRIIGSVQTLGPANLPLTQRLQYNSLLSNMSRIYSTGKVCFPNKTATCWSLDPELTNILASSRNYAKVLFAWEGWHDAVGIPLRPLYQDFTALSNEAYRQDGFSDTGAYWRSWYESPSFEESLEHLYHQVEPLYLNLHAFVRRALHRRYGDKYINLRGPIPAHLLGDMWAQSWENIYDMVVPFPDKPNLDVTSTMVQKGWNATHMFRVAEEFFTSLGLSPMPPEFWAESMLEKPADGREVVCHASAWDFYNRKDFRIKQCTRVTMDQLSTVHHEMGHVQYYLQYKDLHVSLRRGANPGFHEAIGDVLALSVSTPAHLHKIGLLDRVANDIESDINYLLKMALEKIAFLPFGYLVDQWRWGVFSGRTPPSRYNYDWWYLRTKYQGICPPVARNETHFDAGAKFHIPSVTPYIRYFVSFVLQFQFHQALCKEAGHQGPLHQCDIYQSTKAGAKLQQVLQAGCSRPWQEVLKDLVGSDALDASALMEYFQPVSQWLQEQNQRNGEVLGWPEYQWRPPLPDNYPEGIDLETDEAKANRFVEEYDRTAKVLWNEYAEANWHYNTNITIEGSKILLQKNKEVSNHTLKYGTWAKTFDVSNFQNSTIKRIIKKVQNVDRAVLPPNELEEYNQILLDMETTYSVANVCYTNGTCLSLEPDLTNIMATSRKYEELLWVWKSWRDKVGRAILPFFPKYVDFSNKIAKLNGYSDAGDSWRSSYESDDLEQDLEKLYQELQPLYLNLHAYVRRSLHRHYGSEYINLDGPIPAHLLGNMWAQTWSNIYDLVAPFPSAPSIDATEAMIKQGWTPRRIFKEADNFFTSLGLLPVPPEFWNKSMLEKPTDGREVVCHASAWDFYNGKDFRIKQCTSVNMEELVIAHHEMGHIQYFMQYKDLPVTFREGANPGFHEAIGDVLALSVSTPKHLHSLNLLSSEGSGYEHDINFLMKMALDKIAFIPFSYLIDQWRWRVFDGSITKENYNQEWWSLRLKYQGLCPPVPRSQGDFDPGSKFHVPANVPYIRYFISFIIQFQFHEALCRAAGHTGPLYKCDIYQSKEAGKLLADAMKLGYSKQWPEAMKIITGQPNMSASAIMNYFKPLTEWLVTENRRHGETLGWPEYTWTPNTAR
Protocol: ACE value in serum was determined by Hycor kit, rat serum were cultured in 37° C. of [^3H]-hippuryl-glycyl-glycine for 60 minutes. While [^3H]-hippuryl-glycyl-glycine contains three peptide. [^3H] hippuric acid was obtained when extracted of culture solution with ethyl acetate, the content be determined by spectrophotometer. The content in serum sample was as the control group after it was added with 10^−8M, 10^−7M, 10^−6M compounds, then dissolved in PBS.

Compound | β1/β2 Ratio [1] | β1 pA2 value, Right atrium [1] | Decrease of blood pressure [2] [mmHg] | β1 pA2 value, Left atrium [3] | β2 pA2 value, Trachea [4] | Inhibitory activity of ACE, In Rat Serum ([5]; 10^−6M) [%] | Inhibitory activity of ACE, In Rat Serum ([5]; 10^−7M) [%] | Inhibitory activity of ACE, In Rat Serum ([5]; 10^−8M) [%]
CCOC(=O)C(CCc1ccccc1)NC(C)C(=O)N1CCCC1C(=O)OCc1ccc(OCC(O)CNC(C)(C)C)c(OC)c1 (stereo not shown) [compound 7, Vanynolpril] | 1.9 | 5.87 | 55 ± 6.3 | 5.78 | 5.64 | 83 | 74 | 35
CCOC(=O)C(CCc1ccc(OCC(O)CNCCOc2ccccc2OC)cc1)NC(C)C(=O)N1CCCC1C(=O)O (mixture of isomers) [compound 6, Labetapril] | 1.4 | 5.41 | 65 ± 9.2 | 5.31 | 5.43 | 81 | 67 | 28
